Assay results taken from patent US20150299219A1, “BICYCLIC PYRAZOLONE COMPOUNDS AND METHODS OF USE” (Calitor Sciences, LLC, priority 2014, published 2015).

Key:
[1] = Pharmacokinetic profiles in rats; format: in vivo; conditions: for clearance (CL) / AUC(0-t) / half-life / Vd: iv dosing, 1 mg/kg; for AUC(0-t) / half-life / Vd / bioavailability: rat, plasma; for Vd: read-out: Vss; for bioavailability: po, bioavailability (F)
Experimental: The LC/MS/MS system used in the analysis consists of an Agilent 1200 Series vacuum degasser, binary pump, well-plate autosampler, thermostatted column compartment, the Agilent G6430 Triple Quadrupole Mass Spectrometer with an electrosprayionization (ESI) source. Quantitative analysis was carried out using MRM mode. The parameters for MRM transitions are in the Table A.
An Agilent XDB-C18, 2.1×30 mm, 3.5 μM column was used for the analysis. 5 μL of the samples were injected. Analysis condition: The mobile phase was 0.1% formic acid in water (A) and 0.1% formic acid in methanol (B). The flow rate was 0.4 mL/min. And the gradient of Mobile phase was in the Table B.
Alternatively, an Agilent 6330 series LC/MS/MS spectrometer equipped with G1312A binary pumps, a G1367A autosampler and a G1314C UV detector were used in the analysis. An ESI source was used on the LC/MS/MS spectrometer. The analysis was done in positive ion mode as appropriate and the MRM transition for each analyte was optimized using standard solution. A Capcell MP-C18 100×4.6 mm I.D., […] column (Phenomenex, Torrance, Calif., USA) was used during the analysis. The mobile phase was 5 mM ammonia acetate, 0.1% MeOH in water (A): 5 mM ammonia acetate, 0.1% MeOH in acetonitrile (B) (70/30, v/v). The flow rate was 0.6 mL/min. Column was maintained at ambient temperature. 20 μL of the samples were injected.
The compounds disclosed herein are assessed in pharmacokinetic studies in mice, rats, dogs or monkeys. The compounds are administered as a water solution, 2% HPMC+1% TWEEN®80 in water solution, 5% DMSO+5% solutol in saline, 4% MC suspension or capsule. For the intravenous administration, the animals are generally given at 1 or 2 mg/kg dose. For the oral (p.o.) dosing, mice and rats are generally given 5 or 10 mg/kg dose, and dogs and monkeys are generally given 10 mg/kg dose. The blood samples (0.3 mL) are drawn at 0.25, 0.5, 1.0, 2.0, 3.0, 4.0, 6.0, 8.0, 12 and 24 h time points or 0.083, 0.25, 0.5, 1.0, 2.0, 4.0, 6.0, 8.0 and 24 h time points and centrifuged at 3,000 or 4000 rpm for 2 to 10 min. The plasma solutions are collected, and stored at −20° C. or −70° C. until analyzed by LC/MS/MS as described above.

Axl (h) = molecular target: T1, Axl (h) (Homo sapiens, UniProt P30530); experiment: Axl (h) kinase assay; format: biochemical
T1 construct: purchased Millipore UK Ltd
T1 sequence (P30530 26-894): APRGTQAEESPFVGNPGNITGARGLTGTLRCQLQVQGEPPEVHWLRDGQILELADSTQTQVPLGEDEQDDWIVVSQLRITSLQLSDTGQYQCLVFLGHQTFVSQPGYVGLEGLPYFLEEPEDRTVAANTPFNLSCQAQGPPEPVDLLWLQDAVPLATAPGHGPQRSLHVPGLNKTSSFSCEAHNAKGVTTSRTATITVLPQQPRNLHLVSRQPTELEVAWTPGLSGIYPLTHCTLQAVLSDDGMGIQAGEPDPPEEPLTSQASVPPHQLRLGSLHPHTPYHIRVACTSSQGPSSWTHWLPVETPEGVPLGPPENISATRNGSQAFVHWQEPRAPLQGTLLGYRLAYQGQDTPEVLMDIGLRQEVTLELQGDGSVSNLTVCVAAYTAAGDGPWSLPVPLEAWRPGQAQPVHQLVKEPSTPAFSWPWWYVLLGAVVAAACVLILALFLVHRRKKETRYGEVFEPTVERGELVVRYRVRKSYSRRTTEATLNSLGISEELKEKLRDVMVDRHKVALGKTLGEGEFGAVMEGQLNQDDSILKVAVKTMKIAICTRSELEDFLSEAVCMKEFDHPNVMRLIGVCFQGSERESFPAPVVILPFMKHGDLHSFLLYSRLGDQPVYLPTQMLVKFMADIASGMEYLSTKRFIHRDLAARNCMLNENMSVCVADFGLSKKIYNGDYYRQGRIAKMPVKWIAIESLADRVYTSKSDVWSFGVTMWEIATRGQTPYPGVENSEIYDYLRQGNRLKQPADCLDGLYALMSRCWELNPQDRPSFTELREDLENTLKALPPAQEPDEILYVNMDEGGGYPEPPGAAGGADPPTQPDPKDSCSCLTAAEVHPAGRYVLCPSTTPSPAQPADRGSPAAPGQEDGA
Experimental: The above assay procedure can be used to determine the IC50 for inhibition and/or the inhibition constant, Ki. The IC50 is defined as the concentration of compound required to reduce the enzyme activity by 50% under the condition of the assay. The IC50 value is estimated by preparing a 10 point curve using a 1/2 log dilution series (for example, a typical curve may be prepared using the following compound concentrations: 10 μM, 3 μM, 1 μM, 0.3 μM, 0.1 μM, 0.03 μM, 0.01 μM, 0.003 μM, 0.001 μM and 0 μM).
Axl (h) is incubated with 8 mM MOPS pH 7.0, 0.2 mM EDTA, 250 μM KKSRGDYMTMQIG, 10 mM MgAcetate and [γ-^33P-ATP] (specific activity approx. 500 cpm/pmol, concentration as required). The reaction is initiated by the addition of the MgATP mix. After incubation for 40 minutes at room temperature, the reaction is stopped by the addition of 3% phosphoric acid solution. 10 μL of the reaction is then spotted onto a P30 filtermat and washed three times for 5 minutes in 75 mM phosphoric acid and once in methanol prior to drying and scintillation counting.
The kinase assays described herein were performed at Millipore UK Ltd, Dundee Technology Park, Dundee DD2 1SW, UK.

## CC(=O)Nc1cc(Oc2ccc(NC(=O)c3c4n(n(-c5ccccc5)c3=O)CCC4)cc2)ccn1 [Ex. 3, N-(4-((2-acetamidopyridin-4-yl)oxy)phenyl)-2-oxo-1-phenyl-2,4,5,6-tetrahydro-1H-pyrrolo[1,2-b]pyrazole-3-carboxamide]
[1]
  clearance (CL): 0.039 L/h/kg
  AUC(0-t): 26.3 µg·h/mL
  half-life: 3.83 h
  Vd: 0.18 L/kg
  bioavailability: 94.5%

## O=C(Nc1ccc(Oc2ccnc(NC(=O)C3CC3)c2)cn1)c1c2n(n(-c3ccccc3)c1=O)CCC2 [Ex. 14, N-(5-((2-(cyclopropanecarboxamido)pyridin-4-yl)oxy)pyridin-2-yl)-2-oxo-1-phenyl-2,4,5,6-tetrahydro-1H-pyrrolo[1,2-b]pyrazole-3-carboxamide]
[1]
  clearance (CL): 0.076 L/h/kg
  AUC(0-t): 12.9 µg·h/mL
  half-life: 5.01 h
  Vd: 0.359 L/kg
  bioavailability: 87.9%
Axl (h)
  IC50: 7 nM

## CC(=O)Nc1cc(Oc2ccc(NC(=O)c3c4n(n(-c5ccccc5)c3=O)CCOC4)nc2)ccn1 [Ex. 12, N-(5-((2-acetamidopyridin-4-yl)oxy)pyridin-2-yl)-2-oxo-1-phenyl-2,4,6,7-tetrahydro-1H-pyrazolo[5,1-c][1,4]oxazine-3-carboxamide]
[1]
  clearance (CL): 0.020 L/h/kg
  AUC(0-t): 46.7 µg·h/mL
  half-life: 6.68 h
  Vd: 0.136 L/kg
  bioavailability: 72.1%
Axl (h)
  IC50: 14 nM

## O=C(Nc1ccc(Oc2ccnc(NC(=O)C3CC3)c2)cc1)c1c2n(n(-c3ccccc3)c1=O)CCC2 [Ex. 2, N-(4-((2-(cyclopropanecarboxamido)pyridin-4-yl)oxy)phenyl)-2-oxo-1-phenyl-2,4,5,6-tetrahydro-1H-pyrrolo[1,2-b]pyrazole-3-carboxamide]
[1]
  clearance (CL): 0.033 L/h/kg
  AUC(0-t): 27.2 µg·h/mL
  half-life: 7.71 h
  Vd: 0.313 L/kg
  bioavailability: 68.1%

## O=C(Nc1ccc(Oc2ccnc(NC(=O)C3CC3)c2)cc1)c1c2n(n(-c3ccccc3)c1=O)CCOC2 [Ex. 19, N-(4-((2-(cyclopropanecarboxamido)pyridin-4-yl)oxy)phenyl)-2-oxo-1-phenyl-2,4,6,7-tetrahydro-1H-pyrazolo[5,1-c][1,4]oxazine-3-carboxamide]
[1]
  clearance (CL): 0.018 L/h/kg
  AUC(0-t): 50.1 µg·h/mL
  half-life: 7.09 h
  Vd: 0.15 L/kg
  bioavailability: 66.7%
Axl (h)
  IC50: 5 nM
